Data reported in ChEMBL document CHEMBL3044810, “Synthesis and herbicidal activity of alkyl 1-(3-trifluoromethylphenoxyacetoxy)-1-substituted methylphosphonates” (J Pestic Sci, 2007).

Tests used:
Brassica napus [1] = assay: Pre-emergence herbicidal activity against Brassica napus (oilseed rape) assessed as growth inhibition at 1.5 ai kg/ha under green house conditions; type: functional
Echinochloa crus-galli [2] = assay: Post-emergence herbicidal activity against Echinochloa crus-galli (barnyard grass) assessed as growth inhibition at 1.5 ai kg/ha under green house conditions; type: functional
Digitaria sanguinalis [3] = assay: Post-emergence herbicidal activity against Digitaria sanguinalis (hairy crabgrass) assessed as growth inhibition at 1.5 ai kg/ha under green house conditions; type: functional
Digitaria sanguinalis [4] = assay: Pre-emergence herbicidal activity against Digitaria sanguinalis (hairy crabgrass) assessed as growth inhibition at 1.5 ai kg/ha under green house conditions; type: functional
Amaranthus retroflexus [5] = assay: Post-emergence herbicidal activity against Amaranthus retroflexus assessed as growth inhibition at 1.5 ai kg/ha under green house conditions; type: functional
Brassica napus [6] = assay: Post-emergence herbicidal activity against Brassica napus (oilseed rape) assessed as growth inhibition at 1.5 ai kg/ha under green house conditions; type: functional
Echinochloa crus-galli [7] = assay: Pre-emergence herbicidal activity against Echinochloa crus-galli (barnyard grass) assessed as growth inhibition at 1.5 ai kg/ha under green house conditions; type: functional
Amaranthus retroflexus [8] = assay: Pre-emergence herbicidal activity against Amaranthus retroflexus assessed as growth inhibition at 1.5 ai kg/ha under green house conditions; type: functional
Cucumis sativus = assay: Pre-emergence growth inhibition of Cucumis sativus (cucumber) under green house conditions; type: functional, organism-based
Medicago sativa [9] = assay: Pre-emergence herbicidal activity against Medicago sativa (alfalfa) assessed as growth inhibition at 1.5 ai kg/ha under green house conditions; type: functional
Medicago sativa [10] = assay: Post-emergence herbicidal activity against Medicago sativa (alfalfa) assessed as growth inhibition at 1.5 ai kg/ha under green house conditions; type: functional

Row | Compound | growth inhibition (GI) (Brassica napus [1]) | growth inhibition (GI) (Echinochloa crus-galli [2]) | growth inhibition (GI) (Digitaria sanguinalis [3]) | growth inhibition (GI) (Digitaria sanguinalis [4]) | growth inhibition (GI) (Amaranthus retroflexus [5]) | growth inhibition (GI) (Brassica napus [6]) | growth inhibition (GI) (Echinochloa crus-galli [7]) | growth inhibition (GI) (Amaranthus retroflexus [8]) | IC50 (Cucumis sativus) | growth inhibition (GI) (Medicago sativa [9]) | growth inhibition (GI) (Medicago sativa [10])
1 | CCOP(=O)(OCC)C(C)OC(=O)COc1ccc(C)cc1 (stereo not drawn) | 62.17% | 47.4% | 0% | 0% | 0% | 30.9% | – | – | – | – | –
2 | COP(=O)(OC)C(OC(=O)COc1ccc(Cl)cc1Cl)c1ccccc1Cl (stereo not drawn) | 100% | 50% | 68.75% | 50% | 100% | 100% | 70% | 100% | 0.048 µg/g | – | –
3 | COP(=O)([O-])COC(=O)COc1ccc(Cl)cc1Cl.[Na+] | 96.6% | 28% | 28.6% | 90.3% | 100% | 97.7% | 84.6% | 96.6% | 0.31 µg/g | 100% | 92.5%
4 | CCCC(OC(=O)COc1ccc(Cl)cc1Cl)P(=O)([O-])OC.[K+] (stereo not drawn) | 37% | 33.8% | 38.9% | 35.2% | 38.5% | 42.6% | 32.1% | 18.6% | 4.21 µg/g | 10.2% | 91.2%
5 | O=C(COc1ccc(Cl)cc1Cl)OC(c1ccccc1Cl)P(=O)(O)O (stereo not drawn) | 67% | 20.5% | 13% | 23% | 23% | 49% | 10% | 23% | – | – | –
6 | COP(=O)(OC)C(C)OC(=O)COc1cccc(C(F)(F)F)c1 (stereo not drawn) | 56.1% | 12.3% | 39.1% | 73.1% | 27.3% | 92.6% | 57.3% | 43.4% | – | 63.8% | 100%
7 | CCOP(=O)(OCC)C(OC(=O)COc1cccc(C(F)(F)F)c1)c1ccc(Cl)cc1 (stereo not drawn) | 13.8% | 5.6% | 16% | 95.7% | 86.3% | 45.4% | 76.5% | 86.4% | 4.32 µg/g | 100% | 100%
8 | COP(=O)(OC)C(OC(=O)COc1cccc(C(F)(F)F)c1)c1ccc2c(c1)OCO2 (stereo not drawn) | 64.6% | 15.3% | 12% | 93.2% | 88.5% | 43.3% | 70.6% | 100% | 4.87 µg/g | 100% | 100%
9 | O=C(O)COc1ccc(Cl)cc1Cl [2,4-DICHLOROPHENOXYACETIC ACID] | 100% | 54.5% | 59.6% | 88.7% | 100% | 89.13% | 80% | 95.5% | 0.1379 µg/g | 90% | 95.5%
10 | COP(=O)(OC)C(C)OC(=O)COc1ccc(Cl)cc1Cl (stereo not drawn) [CLACYFOS] | 99.5% | 50% | 55% | 70% | 100% | 100% | 70% | 100% | – | 98% | 100%
